Drawing on ChEMBL document CHEMBL3046902, “New dihydropyridine derivatives: anti-inflammatory, analgesic and docking studies” (2013), this text covers inhibition in vivo and Time for 14 compounds.

As usually defined, the inhibition in vivo is the percentage by which the read-out fell short of the control.

What all share (type): functional
In assay [1] the test system is Rattus norvegicus. In words: Anti-inflammatory activity in Rattus norvegicus Wistar (rat) assessed as inhibition of carrageenan-induced paw edema at 20 mg/kg administered 30 min prior to carrageenan challenge measured after 3 hr by plethysmographic analysis relative to untreated control. On the technique in general: Carrageenan injected into the paw causes an acute inflammation.

Assay [2] has as its system Rattus norvegicus. Nature of the assay: Anti-inflammatory activity in Rattus norvegicus Wistar (rat) assessed as inhibition of carrageenan-induced paw edema at 20 mg/kg administered 30 min prior to carrageenan challenge measured after 0.5 hr by plethysmographic analysis relative to untreated control.
Assay [3] has as its system Rattus norvegicus. Nature of the assay: Anti-inflammatory activity in Rattus norvegicus Wistar (rat) assessed as inhibition of carrageenan-induced paw edema at 20 mg/kg administered 30 min prior to carrageenan challenge measured after 1 hr by plethysmographic analysis relative to untreated control.
For assay [4], the system named is Rattus norvegicus. In words: Anti-inflammatory activity in Rattus norvegicus Wistar (rat) assessed as inhibition of carrageenan-induced paw edema at 20 mg/kg administered 30 min prior to carrageenan challenge measured after 2 hr by plethysmographic analysis relative to untreated control.
The species named for assay [5] is Rattus norvegicus. In words: Analgesic activity in Rattus norvegicus Wistar (rat) assessed as tail flick latency time after 30 min by tail immersion test (reference value: 3.23 +/- 0.005 secs). A general note: Hot-plate and tail-flick tests time the reaction to a heat stimulus.
The species entered for assay [6] is Rattus norvegicus. Nature of the assay: Analgesic activity in Rattus norvegicus Wistar (rat) assessed as tail flick latency time after 90 min by tail immersion test (reference value: 3.25 +/- 0.005 secs).
The species entered for assay [7] is Rattus norvegicus. Nature of the assay: Analgesic activity in Rattus norvegicus Wistar (rat) assessed as tail flick latency time after 60 min by tail immersion test (reference value: 3.34 +/- 0.005 secs).

In the case of `O=C(O)Cc1ccccc1Nc1c(Cl)cccc1Cl` [DICLOFENAC SODIUM], the inhibition in vivo at 20 mg/kg in the assay on Rattus norvegicus [1] is 65.3%; in the assay with Rattus norvegicus [2], 16.7%; in the assay with Rattus norvegicus [3], 41%; in the assay on Rattus norvegicus [4] it was 61.1%.
With `CCOC(=O)C1=C(C)NC(C)=C(C(=O)OCC)C1c1ccc(OCC(=O)NN2C(=O)c3ccccc3C2=O)cc1`, the values for the Time in the assay listed under Rattus norvegicus [5], in the assay filed under Rattus norvegicus [6] and in the assay listed under Rattus norvegicus [7] were 5.03 s, 7.21 s and 6.16 s, respectively.
For `CCOC(=O)C1=C(C)NC(C)=C(C(=O)OCC)C1c1ccc(OCc2nnc(S)o2)cc1`, the inhibition in vivo at 20 mg/kg with Rattus norvegicus [2] came to 42.4%; with Rattus norvegicus [4], 61.7%. In addition, the Time in the assay listed under Rattus norvegicus [5] turned out to be 4.97 s; in the assay filed under Rattus norvegicus [6], 6.97 s; in the assay filed under Rattus norvegicus [7], 6.07 s.
In the case of `CCOC(=O)C1=C(C)NC(C)=C(C(=O)OCC)C1c1ccc(OCC(=O)NNC(=O)CCC(=O)O)cc1`, the Time in the assay filed under Rattus norvegicus [5] is 4.96 s; in the assay filed under Rattus norvegicus [6] it was 6.87 s; in the assay listed under Rattus norvegicus [7], 6.07 s.
Consider `CCOC(=O)C1=C(C)NC(C)=C(C(=O)OCC)C1c1ccc(OCC(=O)n2nc(C)cc2C)cc1`, for which the inhibition in vivo at 20 mg/kg in the assay on Rattus norvegicus [2] was 13.7%. Further, the Time in the assay filed under Rattus norvegicus [5] turned out to be 4.76 s; in the assay listed under Rattus norvegicus [6], 6.78 s; in the assay listed under Rattus norvegicus [7] it was 5.93 s.
`CCOC(=O)C1=C(C)NC(C)=C(C(=O)OCC)C1c1ccc(OCC(=O)NNC(=O)c2ccsc2Cl)cc1`: the inhibition in vivo at 20 mg/kg with Rattus norvegicus [2] turned out to be 12.9%. The values for the Time in the assay filed under Rattus norvegicus [5], in the assay listed under Rattus norvegicus [6] and in the assay listed under Rattus norvegicus [7] were 4.85 s, 6.46 s and 5.74 s, respectively.
Regarding `CCOC(=O)C1=C(C)NC(C)=C(C(=O)OCC)C1c1ccc(OCC(=O)Nc2nc3ccccc3s2)cc1`, the inhibition in vivo at 20 mg/kg in the assay on Rattus norvegicus [2] is 47.7%; in the assay with Rattus norvegicus [4], 64.5%. Besides, the Time stood at 5.28 s in the assay filed under Rattus norvegicus [5] and 6.03 s in the assay filed under Rattus norvegicus [7].
In the case of `CCOC(=O)C1=C(C)NC(C)=C(C(=O)OCC)C1c1ccc(OCC(=O)NNC(=O)c2ccccc2)cc1`, the inhibition in vivo at 20 mg/kg with Rattus norvegicus [2] was 9.1%; with Rattus norvegicus [4], 44.5%. Besides, the Time in the assay filed under Rattus norvegicus [5] is reported as 4.62 s; in the assay filed under Rattus norvegicus [6], 6.37 s; in the assay listed under Rattus norvegicus [7] it was 5.87 s.
Take `CCOC(=O)C1=C(C)NC(C)=C(C(=O)OCC)C1c1ccc(OCC(=O)NCc2ccccc2)cc1`: the results for the inhibition in vivo at 20 mg/kg in the assay with Rattus norvegicus [3] and with Rattus norvegicus [4] were 16.1% and 8.9%, respectively.
Regarding `O=C([O-])Cc1ccccc1Nc1c(Cl)cccc1Cl.[K+]` [DICLOFENAC POTASSIUM], the Time is reported as 6.25 s in the assay listed under Rattus norvegicus [5], 7.45 s in the assay listed under Rattus norvegicus [6] and 6.95 s in the assay listed under Rattus norvegicus [7].
Turning to `CCOC(=O)C1=C(C)NC(C)=C(C(=O)OCC)C1c1ccc(OCC(=O)NNC(=O)c2sccc2Cl)cc1`, the Time in the assay filed under Rattus norvegicus [5] was 4.34 s; in the assay filed under Rattus norvegicus [6], 6.45 s; in the assay filed under Rattus norvegicus [7] it was 5.67 s. In addition, the inhibition in vivo at 20 mg/kg in the assay on Rattus norvegicus [4] is 57.2%.
As to `CCOC(=O)C1=C(C)NC(C)=C(C(=O)OCC)C1c1ccc(OCC(=O)Nc2c(C)cccc2C)cc1`, the results for the inhibition in vivo at 20 mg/kg in the assay on Rattus norvegicus [2] and in the assay with Rattus norvegicus [4] were 15.9% and 47.8%, respectively.
For `CCOC(=O)C1=C(C)NC(C)=C(C(=O)OCC)C1c1ccc(OCC(=O)Nc2ccc(C)cc2)cc1`, the inhibition in vivo at 20 mg/kg amounted to 43.9% in the assay with Rattus norvegicus [2] and 62.2% with Rattus norvegicus [4].
In the case of `CCOC(=O)C1=C(C)NC(C)=C(C(=O)OCC)C1c1ccc(OCC(=O)NNC(=O)c2cccs2)cc1`, the inhibition in vivo at 20 mg/kg with Rattus norvegicus [2] was found to be 44%; in the assay on Rattus norvegicus [4] it was 62.2%. In addition, the Time in the assay filed under Rattus norvegicus [6] is reported as 7.02 s; in the assay listed under Rattus norvegicus [7], 6.23 s.
